Test system: JEG-3 (human placental choriocarcinoma cell line)
Assay: Oligo microarray gene expression in drug-treated JEG-3 (Cy5 treated / Cy3 control)
Assay type: cell-based
Method: Thalidomide, valproic acid, and methotrexate were treated to human placental choriocarcinoma cell line at the concentrations determined above (Inhibition concentration: the concentration that can kill approximately 30% of the total cells, that is the concentration of 70% viability, IC30). mRNA was extracted from the drug treated cell line, followed by synthesis of cDNA which was labeled with Cy5. The non-treated control was labeled with Cy3. The fluorescence labeled cDNA was hybridized with 41K (thalidomide), 44K (valproic acid, methotrexate) human whole genome oligomicroarray chips (Agilent, USA), followed by fluorescent image scanning to analyze gene expression patterns (see FIG. 4). Volcano Plot of each substance was also attached. Y axis indicates probability (generally converted by −log 10). X axis indicates differential expression, which is presented by log-ratio.
Total RNA was separated from the treated cell by using trizol reagent (Invitrogen Life Technologies, USA) according to the manufacture's instructions, followed by purification using RNeasy mini kit (Qiagen, USA). Genomic DNA was eliminated during RNA purification using RNase-free DNase set (Qiagen, USA).
30 μg of the total RNA obtained above and 2 μg (1 μg/μl) of oligo (dT) primer were mixed, followed by reaction at 65° C. for 10 minutes. Annealing was performed in ice right after the reaction. Reagents were prepared as shown in Table 1 for reverse transcription of the annealed RNA.
The total RNA separated from the control group JEG-3 cells was labeled with Cy3-dUTP (green) and the total RNA separated from the experiment group JEG-3 cells treated with thalidomide, valproic acid and methotrexate was labeled with Cy5-dUTP (red). At this time, the two samples were mixed and purified by Microcon YM-30 column (Millipore, USA).
Hybridization and washing were performed by the manufacturer's (GenoCheck, Korea) instructions. Particularly, hybridization was performed in a 62° C. oven for 12 hours. As a DNA microarray chip, 44 k whole human genome oligo microarray (Agilent, USA) was used. After washing (2 minutes with 2×SSC/0.1% SDS, three minutes with 1×SSC, 2 minutes with 0.2×SSC), the slide was dried by centrifugation at 800 rpm for 3 minutes.
Hybridization image on the slide was scanned with Genepix 4000B (Axon Instruments, USA). Fluorescence image of the chip on which non-hybridized genes had been washed out was obtained by using laser fluorescence scanner. Green fluorescence image indicates the activity of gene specifically expressed in the control group and red fluorescence image indicates the activity of gene specifically expressed in the experimental group. […] Scanned image was analyzed by using GenePix 4.1 software (Axon Instruments, USA) to calculate gene expression rate.

[1] = out of 21797 (thalidomide), 21921 (valproic acid), 24006 (methotrexate) genes
[2] = treated at IC30, up-regulated gene, (k) common gene which has no function

CN(Cc1cnc2nc(N)nc(N)c2n1)c1ccc(C(=O)N[C@@H](CCC(=O)O)C(=O)O)cc1 [MTX, methotrexate]
Ratio of intermediate value, ATM (Genbank NM_000051, drug at IC30): 0.48 | Ratio of intermediate value, KAL1 (Genbank NM_000216, drug at IC30): 0.43 | Ratio of intermediate value, PMP22 (Genbank NM_000304, drug at IC30): 0.43 | Ratio of intermediate value, ATR (Genbank NM_001184, drug at IC30): 0.41 | Ratio of intermediate value, PARP1 (Genbank NM_001618, drug at IC30): 0.60 | Ratio of intermediate value, AUH (Genbank NM_001698, drug at IC30): 0.39 | Ratio of intermediate value, CDO1 (Genbank NM_001801, drug at IC30): 0.45 | Ratio of intermediate value, MGMT (Genbank NM_002412, drug at IC30): 0.48 | Ratio of intermediate value, NTHL1 (Genbank NM_002528, drug at IC30): 0.42 | Ratio of intermediate value, UNG (Genbank NM_003362, drug at IC30): 0.41 | Ratio of intermediate value, EEF1E1 (Genbank NM_004280, drug at IC30): 0.46 | Ratio of intermediate value, FEZ1 (Genbank NM_005103, drug at IC30): 0.43 | Ratio of intermediate value, BCAT1 (Genbank NM_005504, drug at IC30): 0.12 | Ratio of intermediate value, BCKDK (Genbank NM_005881, drug at IC30): 0.48 | Ratio of intermediate value, POLD2 (Genbank NM_006230, drug at IC30): 0.29 | Ratio of intermediate value, FARS2 (Genbank NM_006567, drug at IC30): 0.46 | Ratio of intermediate value, POLG2 (Genbank NM_007215, drug at IC30): 0.45 | Ratio of intermediate value, ABL1 (Genbank NM_007313, drug at IC30): 0.49 | Ratio of intermediate value, LIG3 (Genbank NM_013975, drug at IC30): 0.49 | Ratio of intermediate value, CGI-04 (Genbank NM_015936, drug at IC30): 0.47 | Ratio of intermediate value, MAPT (Genbank NM_016835, drug at IC30): 0.38 | Ratio of intermediate value, FLJ10514 (Genbank NM_018122, drug at IC30): 0.38 | Ratio of intermediate value, LGP1 (Genbank NM_032484, drug at IC30): 0.49 | Ratio of intermediate value, PSAT1 (Genbank NM_058179, drug at IC30): 0.31 | Ratio of intermediate value, HARS2 (Genbank NM_080820, drug at IC30): 0.26 | Ratio of intermediate value, DBN1 (Genbank NM_080881, drug at IC30): 0.44 | Ratio of intermediate value, ASNS (Genbank NM_133436, drug at IC30): 0.33 | Ratio of intermediate value, ROBO1 (Genbank NM_133631, drug at IC30): 0.39 | Ratio of intermediate value, TARSL2 (Genbank NM_152334, drug at IC30): 0.36 | Ratio of intermediate value, CNTN4 (Genbank NM_175607, drug at IC30): 0.31 | Ratio of intermediate value, ERCC8 (Genbank NM_001007233, drug at IC30): 0.41 | Ratio of intermediate value, RAD50 (Genbank U63139, drug at IC30): 0.36 | Ratio of intermediate value, VARS2 (Genbank X59303, drug at IC30): 0.33 | Ratio of intermediate value, SR140 (Genbank XM_031553, drug at IC30): 0.66 | Ratio of intermediate value, LOC389173 (Genbank XM_371677, drug at IC30): 0.27 | genes down-regulated (ratio of intermediate value less than 0.666) (JEG-3, drug at IC30, 48 hours): 6.28% | genes up-regulated (ratio of intermediate value more than 1.5) (JEG-3, drug at IC30, 48 hours): 9.5% | number of genes down-regulated [1]: 1508 | number of genes up-regulated [1]: 2149 | Ratio of intermediate value, gene ATP10B (AB018258, ATPase, Class V, type 10B) [2]: 4.95 | Ratio of intermediate value, gene BQ186674 (cDNA clone UI-E-EJ1-ajr-f-10-0-UI, Hypothetical gene supported by AF086204) [2]: 3.79 | Ratio of intermediate value, gene BX111592 (Transcribed locus, moderately similar to XP_066443.6 PREDICTED: similar to paraneoplastic antigen like 6A) [2]: 9.86 | Ratio of intermediate value, gene CGA (NM_000735, Glycoprotein hormones, alpha polypeptide) [2]: 8.07 | Ratio of intermediate value, gene COBLL1 (BX649112, COBL-like 1) [2]: 4.89 | Ratio of intermediate value, gene CYP19A1 (AK023571, Cytochrome P450, family 19, subfamily A, polypeptide 1) [2]: 2.72 | Ratio of intermediate value, gene FLJ11017 (AK001879, Hypothetical protein FLJ11017) [2]: 4.69 | Ratio of intermediate value, gene GLCCI1 (AK126731, Glucocorticoid induced transcript 1) [2]: 2.84 | Ratio of intermediate value, gene KIAA0310 (AB002308, KIAA0310) [2]: 2.29 | Ratio of intermediate value, gene MGC27016 (AK125877, Hypothetical protein MGC27016) [2]: 1.52 | Ratio of intermediate value, gene NCOA3 (NM_181659, Nuclear receptor coactivator 3) [2]: 2.12 | Ratio of intermediate value, gene RGS2 (BC042755, Regulator of G-protein signalling 2, 24 kDa) [2]: 9.24 | Ratio of intermediate value, gene SIAT7A (BC063830, ST6 (alpha-N-acetyl-neuraminyl-2,3-beta-galactosyl-1,3)-N-acetylgalactosaminide alpha-2,6-sialyltransferase 1) [2]: 15.01 | Ratio of intermediate value, gene SIAT8D (NM_005668, ST8 alpha-N-acetyl-neuraminide alpha-2,8-sialyltransferase 4) [2]: 1.82 | Ratio of intermediate value, gene SLC7A8 (Y18483, Solute carrier family 7 (cationic amino acid transporter, y+ system), member 8) [2]: 3.76 | Ratio of intermediate value, gene SLC40A1 (AK023574, Solute carrier family 40 (iron-regulated transporter), member 1) [2]: 3.06 | Ratio of intermediate value, gene TFCP2L4 (BC036890, Grainyhead-like 3 (Drosophila)) [2]: 4.11 | Ratio of intermediate value, gene TTF2 (AB209845, Transcription termination factor, RNA polymerase II) [2]: 1.94 | Ratio of intermediate value, gene TUBB3 (AK122757, Tubulin, beta 3) [2]: 7.85 | Ratio of intermediate value, gene TncRNA (AF001893, Trophoblast-derived noncoding RNA) [2]: 2.11

Reference: patent US8445207B2, “Genes based on thalidomide, valproic acid and methotrexate treatment for screening of drug inducing teratogenicity and screening method using thereof” (priority 2009, dated 2013)
